Columns and labels:
[1] = test system: rumen fluid from live fistulated cows; test: Fermentation of dried grass with rumen fluid from treated live fistulated cows, 12 hours (Example 11); type: in vivo, cow; conditions: 36° C., dark, 1 g dried grass
Method: In this trial, samples of rumen fluid from live fistulated cows were collected, passed through butter muslin (cheese cloth) and the fluid transferred to pre-warmed Thermos™ flasks.
Six fermentation vessels had 1 g of dried grass added to each.
Three vessels, the Experimentals, were filled with the rumen fluid from the treated cows. The other three vessels, the controls, were filled with rumen fluid from the untreated cows. All vessels were gently incubated at 36° C. in the dark for 12 hours.

[2] = test system: rumen regions AD, PD, PV, AV; test: Natural fermentation and pH of fluid from different rumen regions; type: cell-based, cow; conditions: FIG. 13
Description: The different rumen regions were sampled by collecting the rumen of a slaughtered animal and making a cut with a sterile knife in a particular region and then palpating fluid samples using gloved hands from the cut. Cuts were made in the anterior dorsal region of the rumen (AD), the posterior region (PD), the posterior ventral (PV) and the anterior ventral (AV).
FIG. 13 is a graph showing the results of natural fermentation (without the addition of substrate other than the material eaten by the cow before death), according to one or more embodiments.
The pH difference between experimental, which were dosed with vitamin K1, and the controls, which were not dosed with vitamin K1, was greatest at position AD. The average pH in the control samples was 6.51 and in the experimental samples, the average pH was 6.34.

pig faeces = test: Fermentation of diluted pig faeces; type: cell-based; conditions: 1% steep fluid
Method: Fresh pig faeces samples were mixed with an equal volume of distilled water.
Six 50 ml fermentation tubes were used in the fermentation experiment.
The controls were […] fermentation tubes filled to the top with diluted pig faeces.
The fermentation tubes were gently agitated in a water bath held in the dark at 36° C.

[3] = test system: rumen fluid from live cows; test: Fermentation of dried grass with rumen fluid from fistulated cows that drank dilute vitamin K1 solution; type: in vivo, cow; conditions: drinking water, 100 ml of tincture to 20 litres of water
Description: The collected rumen fluid was then fermented with dried grass in the fermenter described in Example 1 and FIG. 1.

cow pats (faeces) = test: Fermentation of cow pats from cows drenched with vitamin K1; type: in vivo; conditions: FIG. 9; no vitamin K1 added to the cow pats
Method: The cows in both fields were of the same breed and provenance.
The resulting cow pat samples were fermented using the apparatus described in Example 1 and FIG. 1 and gas produced collected and tested. Vitamin K1 was not added to the cow pats.
An qualitative test was also completed where the smell of the gases in the fermentation chambers were assessed at the end of fermentation.

sheep = test: Sheep exhalant breath trial after vitamin K1 drench (Douglas Bag type apparatus, Micro GC); type: in vivo
Method: The sheep tested in this trial were ewe sheep. In this and all subsequent sheep trials, the sheep were yarded for 24 hours before the trial commenced, so their rumen was at least partially empty since they could not eat when yarded. In total, 60 sheep were tested in similar trials on two different sheep farms. The sheep in each trial were divided randomly into two equal groups, one group being an experimental group and the other group being a control group.
The sheep were driven into a race and each individual was drenched as they came to the end of the race. Sheep in the experimental group and control group were given a 50 ml drench prior to yard release and normal grazing and behaviour.
The sheep were let out to feed in a field and allowed to graze on grass freely. They were herded back at intervals and their exhalant breath captured. The breath exhalation of sheep was measured using the apparatus shown in FIG. 4, according to one or more embodiments, being an instrument based on Douglas Bag equipment for the sampling of exhalant breath from humans. Note that the air space in the tubes shown in FIG. 4 is exaggerated in the drawing, according to one or more embodiments. In reality, the air space may be kept to as small a volume as possible to avoid contamination of the exhalant breath with the dead air in the tubes. The gas impermeable bag used for exhalant breath capture must be as big as possible since methane is largely released periodically as a burp rather than in the exhalant breath.
The apparatus of FIG. 4 was designed specifically for use on sheep, according to one or more embodiments. On inspiration by the sheep, the valve opens and the sheep is able to breath in fresh air. On exhalation by the sheep, the valve closes and the exhaled air is directed in to the gas impermeable balloon. It is important that the balloon used is not expanded by the exhaled air, but is merely collected. Otherwise, back pressure may develop which has the potential to interfere with the breathing of the sheep. The valve could be either a flap valve or a table tennis ball. The latter was identified by the inventor as an ideal light weight valve.
The breath exhalant collected was analysed using an Agilent Micro GC with 2 dual columns: molecular sieve 5A and Plot-Q columns.
The six control sheep were drenched with 50 ml of 30% ethyl alcohol plus 50 ml water.
In this trial, the same trial was completed as in Example 3 above however, in this trial male sheep (rams) were trialed and the exhalant breath of the trial animals was tested over a time period of two days, samples taken on day 0, 1 and 2. Five rams were drenched with vitamin K1 and four rams were not drenched at all and used as controls.

methanogens = test: Fermentation of methyl alcohol in rumen fluid; type: cell-based, cow; conditions: MeOH added to rumen fluid with or without vitamin K1
Method: The MeOH was added in equal volumes to tubes containing rumen fluid with (E) or without (C) the addition of vitamin K1. The results are shown as symbols on the Y-axis in FIG. 13, according to one or more embodiments.

[4] = EFSA report 2013; cited from earlier work

Structure (SMILES): CC1=C(C/C=C(\C)CCC[C@H](C)CCC[C@H](C)CCCC(C)C)C(=O)c2ccccc2C1=O [vitamin K1]
- CO2, of controls [1]: 39.35%
- methane formation, of controls [1]: 25.6%
- total gas volume, of controls [1]: 25.6%
- rumen region of greatest inhibition [2]: maximum inhibitory effect in the PV region
- rate of methane production in rumen regions ([2]; natural fermentation without added substrate): lower the rate of methane production
- emission of methane gas from faeces (pig faeces): completely inhibited
- reduction in carbon dioxide production [3]: approximately 29%
- reduction in methane production [3]: approximately 20%
- reduction in total gas production [3]: approximately 25%
- vitamin K1 effect on gas production carried through to faeces (cow pats (faeces)): still active in the faeces
- emitted methane in exhalant breath (sheep; ewes drenched with tincture plus water, versus control sheep): significant reduction
- ill effects after dosing (sheep; ewes, drench): did not show any ill effects
- percentage decrease in methane production compared to control sheep (sheep; rams, drench, day 2): 71%
- amount of emitted gasses, carbon dioxide and methane (sheep; treated versus control sheep): marked lessening
- fermentation of MeOH by methanogens (methanogens): strongly inhibits
- risk to the environment [4]: not a risk to the environment
